From US20030162778A1, “Carbocyclic side chain containing metalloprotease inhibitors” (The Procter and Gamble Company, priority 2000, published 2003)

Key:
[1] = tested on: human subject suffering from rheumatoid arthritis; experiment: Example A: tablet given to a human subject suffering from rheumatoid arthritis; format: in vivo; settings: three tablets (15 mg compound each) per day orally for 2 years, 60 kg person
Description: A tablet composition for oral administration, according to the present invention, is made comprising:
A human subject weighing 60 kg (132 lbs), suffering from rheumatoid arthritis, is treated by a method of this invention. Specifically, for 2 years, a regimen of three tablets per day is administered orally to said subject.

[2] = tested on: human subject with a premetastatic tumor; experiment: Example G: parenteral suspension injected next to a premetastatic tumor; format: in vivo; settings: about 2.0 mL of 100 mg/mL suspension injected beside the tumor twice daily; after 30 days
Description: A composition for parenteral administration is made comprising:
The above ingredients are mixed, forming a suspension. Approximately 2.0 mL of the suspension is administered, via injection, to a human subject with a premetastatic tumor. The injection site juxtaposes the tumor. This dosage is repeated twice daily, for approximately 30 days.

[3] = tested on: asthma sufferer; experiment: Example E: inhalation aerosol for an asthma sufferer; format: in vivo, human; settings: 5.0% w/v aerosol, 0.01 mL sprayed into the mouth while inhaling
Description: An inhalation aerosol composition, according to the present invention, is made comprising: [table] An asthma sufferer sprays 0.01 mL via a pump actuator into the mouth while inhaling. Asthma symptoms are diminished.

[4] = tested on: patient having deep corneal abrasion; experiment: Example C: saline-based drops for a patient having deep corneal abrasion; format: in vivo, human; settings: 5% w/w drop to each eye twice a day
Excerpt: A saline-based composition for local administration, according to the present invention, is made comprising:
A patient having deep corneal abrasion applies the drop to each eye twice a day.

[5] = tested on: human subject suffering from osteoarthritis; experiment: Example B: capsule given to a human subject suffering from osteoarthritis; format: in vivo; settings: capsule containing 70 mg daily for 5 years, 90 kg person
Description: A capsule for oral administration, according to the present invention, is made comprising:
A human subject weighing 90 kg (198 lbs.), suffering from osteoarthritis, is treated by a method of this invention. Specifically, for 5 years, a capsule containing 70 mg of the compound of Example 3 is administered daily to said subject.

[6] = tested on: patient suffering from chemical burns; experiment: Example D: topical composition for a patient suffering from chemical burns; format: in vivo, human; settings: 0.20% w/v topical composition at each dressing change (b.i.d.)
Excerpt: A topical composition for local administration, according to the present invention, is made comprising:
A patient suffering from chemical burns applies the composition at each dressing change (b.i.d.).

COc1ccc(-c2ccc(S(=O)(=O)NC(C(=O)O)C3CCCC(N(Cc4ccccc4)S(C)(=O)=O)C3)cc2)cc1 (centres unmarked) [Example 31, N-{[4′-methoxy-(1,1′-biphenyl)-4-yl]-sulfonyl}-amino-[3-(N-benzyl-N-methanesulfonylamino)-cyclohexan-1-yl]-acetic acid]
inflammation at the end of the treatment period [1]: reduced inflammation | mobility at the end of the treatment period [1]: improved mobility without concomitant pain | symptoms of the disease [2]: subside

COc1ccc(-c2ccc(S(=O)(=O)NC(C(=O)O)C3CCCC(N(C)C(C)=O)C3)cc2)cc1 (centres unmarked) [Example 33, N-{[4′-methoxy-(1,1-biphenyl)-4-yl]-sulfonyl}-amino-[3-(N-methyl-N-acetylamino)-cyclohexan-1-yl]-acetic Acid]
asthma symptoms [3]: diminished

COc1ccc(-c2ccc(S(=O)(=O)NC(C(=O)O)C3CCC(O)CC3)cc2)cc1 (centres unmarked) [Example 1, N-{[4′-Methoxy-(1,1′-biphenyl)-4-yl]-sulfonylamino}-(4-hydroxycyclohexan-1-yl)-acetic Acid]
healing of deep corneal abrasion [4]: speeded | visual sequelae [4]: no visual sequelae

O=C(O)[C@H](NS(=O)(=O)c1ccc(-c2ccc(Br)cc2)cc1)C1CCC2(CC1)OCCCO2 [Example 3, (R)-N-{[4′-bromo-(1,1′-biphenyl)-4-yl]-sulfonyl}-amino-(1,5-dioxa-spiro[5.5]undec-9-yl)-acetic]
advancement of erosion/fibrillation of the articular cartilage (x-ray, arthroscopy and/or MRI) [5]: no further advancement | scarring [6]: substantially diminished
